Each structure is given as a SMILES string.

T1 sequence (P10636 1-383 isoform P10636-6): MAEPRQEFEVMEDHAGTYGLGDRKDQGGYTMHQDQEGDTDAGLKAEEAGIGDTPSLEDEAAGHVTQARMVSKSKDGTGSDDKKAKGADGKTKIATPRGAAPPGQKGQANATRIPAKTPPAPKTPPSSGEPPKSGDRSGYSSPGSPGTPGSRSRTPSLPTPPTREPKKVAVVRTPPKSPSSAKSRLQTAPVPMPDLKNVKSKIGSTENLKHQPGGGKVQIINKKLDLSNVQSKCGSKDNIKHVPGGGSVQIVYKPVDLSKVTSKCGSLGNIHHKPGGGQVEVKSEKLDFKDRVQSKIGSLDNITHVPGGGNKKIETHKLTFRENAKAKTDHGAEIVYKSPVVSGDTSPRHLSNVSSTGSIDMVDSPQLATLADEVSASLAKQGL

The first assay has as its target T1, human-type tau 0N4R isoform (recombinant tau) (Homo sapiens, UniProt P10636).
T1 construct: Fractions including full-length recombinant tau were mixed together; made in house; host or cells: E. coli BL21(DE3)
In words: quantity of sarcosyl insoluble tau by electrophoresis after 168 hours incubation. The class given is biochemical. Conditions: incubation for 168 hours; 0.1-100 μM. The protocol: (§1) First of all, a plasmid expressing human-type tau 0N4R isoform (383 amino acid) was introduced into E. coli BL21(DE3) strain to purify a recombinant tau. The purification was carried out by modifying the method of Taniguchi et al. (see Taniguchi et al., 2008, JBC, 280, 7614). A soluble fraction was prepared based on E. coli in which tau expression had been induced with isopropyl-β-thiogalactopyranoside, and then fractionation was carried out with a phosphocellulose column (e.g., P11 column produced by Whatman). The fraction eluted at an NaCl concentration of 0.1 to 0.3 M was recovered to perform precipitation and concentration using ammonium sulfate. […] The yield and concentration of the tau thus obtained were analyzed by Coomassie Brilliant Blue (CBB) staining after the product was subjected to electrophoresis using 10% polyacrylamide gel.
(§2) The dried and purified recombinant tau sample was dissolved in purified water at a concentration of 0.9 mg/ml. […] Next, their fluorescence value (under excitation light at 360 nm and fluorescent light at 465 nm) was measured with a fluorescent plate reader (infinit F200 produced by TECAN). Thereafter, heparin was added so that the concentration would be 60 μg/ml and then incubation was carried out at 37° C. in a moisture retention box to measure a variation in fluorescence value with time. […]
Take `CC(C)NCC(O)c1ccc(O)c(O)c1` (stereo not shown) [isoproterenol]: the “inhibition of tau polymerization (sarcosyl insoluble tau), concentration dependence” value is “inhibited the tau polymerization depending on the concentration”.

The target in the next assay is T1, human-type tau 0N4R isoform (recombinant tau). As to the kind of experiment: sucrose density-gradient centrifugation fractionation of polymerized tau, electrophoresis and Western blotting. The settings on record: 10 μM. The class given is biochemical. The protocol:
as §1, §2
Turning to `CC(C)NCC(O)c1ccc(O)c(O)c1` (stereo not shown) [isoproterenol], the “quantity of the tau recovered in Fraction 3 (oligomer tau)” value is given as “also seen to decrease”; the “quantity of the tau recovered in Fractions 4 and 5 (fibrosed tau)” value is on record as “seen to decrease significantly”.

The target is the same in a further assay. In words: tau aggregation inhibition experiment, thioflavin T fluorescence (heparin-induced). Type of assay: biochemical. Conditions: 1 μM compound, compared to 1 μM isoproterenol under the same incubation condition. The protocol: First of all, a plasmid expressing human-type tau 0N4R isoform (383 amino acid) was introduced into E. coli BL21(DE3) strain to purify a recombinant tau. The purification was carried out by modifying the method of Taniguchi et al. (see Taniguchi et al., 2008, JBC, 280, 7614). A soluble fraction was prepared based on E. coli in which tau expression had been induced with isopropyl-β-thiogalactopyranoside, and then fractionation was carried out with a phosphocellulose column (e.g., P11 column produced by Whatman). The fraction eluted at an NaCl concentration of 0.1 to 0.3 M was recovered to perform precipitation and concentration using ammonium sulfate. The precipitate thus obtained was dissolved in a buffer containing 0.5 M of NaCl and 2% of 2-mercaptoethanol and then heated to 100° C. for five minutes. Then, the reactant was subjected to a centrifugation at 15,000×g for 15 minutes. The supernatant thus obtained was recovered and then subjected to precipitation and concentration with ammonium sulfate. The precipitate thus obtained was dissolved in a solution containing 20% of acetonitrile and 0.1% of formic acid so as to be purified using reversed phase HPLC (with a Cosmosil protein-R column produced by Nacalai Tesque). Fractions including full-length recombinant tau were mixed together and then the mixture thus obtained was dried with a freeze dryer to obtain a dried and purified recombinant tau sample. The yield and concentration of the tau thus obtained were analyzed by Coomassie Brilliant Blue (CBB) staining after the product was subjected to electrophoresis using 10% polyacrylamide gel.
The dried and purified recombinant tau sample was dissolved in purified water at a concentration of 0.9 mg/ml. […] Next, their fluorescence value (under excitation light at 360 nm and fluorescent light at 465 nm) was measured with a fluorescent plate reader (infinit F200 produced by TECAN). Thereafter, heparin was added so that the concentration would be 60 μg/ml and then incubation was carried out at 37° C. in a moisture retention box to measure a variation in fluorescence value with time. The incubation was carried out for 168 hours, the fluorescence value was measured, and then the reacted solution was recovered to prepare a sarcosyl insoluble fraction. The sarcosyl insoluble fraction was made to have a final concentration of 1% by adding an aqueous solution of 10% (one-tenth quantity of) sodium N-lauroylsarcosinate to the reacted solution recovered. The solution was subjected to incubation at 4° C. for 30 minutes and then subjected to a centrifugation at 100,000×g for 20 minutes to separate the supernatant and the precipitate from each other. With the supernatant fraction and the precipitate regarded as a soluble tau fraction and a sarcosyl insoluble fraction, respectively, the yield of tau was analyzed by electrophoresis using 10% polyacrylamide gel. Also, part of the reacted solution was fractionated by sucrose density-gradient centrifugation using the method of Maeda et al. (see Maeda et al., 2007, Biochemistry, 46, 3856). After the centrifugation, the reactant was fractioned into 1 to 6 according to density and the tau yield was analyzed by 10% polyacrylamide gel electrophoresis and Western blotting.
During screening, the concentration of the compound was supposed to be 1 μM and compared to the effect achieved by 1 μM of isoproterenol under the same incubation condition.
As to `Oc1ccc(C(O)CN2CCOCC2)cc1O` (stereo not shown) [1-(3,4-dihydroxyphenyl)-2-morpholinoethanol], the “tau polymerization inhibitory activity (thioflavin T activity)” value (from here on “tau polymerization inhibitory activity”) is “somewhat higher tau polymerization inhibitory activity than isoproterenol and catechol”.

In the case of `O=Cc1cccc(O)c1O` [2,3-dihydroxybenzaldehyde], the “tau polymerization inhibitory activity” value is reported as “also exhibited as high tau polymerization inhibitory activity”.

As to `COc1ccc(CCN)cc1OC` [2-(3,4-dimethoxy)ethylamine], the “tau polymerization inhibitory activity” value is “nor 2-(3,4-dimethoxy)ethylamine (indicated by 3,4-DMPT and represented by the following Chemical Formula (10)) exhibited any tau polymerization inhibitory activity”.

For `Cn1ccnc1C(O)CN` (stereo not shown) [2-amino-1-(1-methyl-1H-imidazol-2-yl)ethanol], the “tau polymerization inhibitory activity” value was “none of these compounds exhibited the tau polymerization inhibitory activity”.

Regarding `NCC(O)c1ccc(Cl)c(Cl)c1` (stereo not shown) [2-amino-1-(3,4-dichlorophenyl)ethanol], the “tau polymerization inhibitory activity” value is recorded as “No tau polymerization inhibitory activities”.

In the case of `NCC(O)c1ccco1` (stereo not shown) [2-amino-1-(furan-2-yl)ethanol], the “tau polymerization inhibitory activity” value was “none of these compounds exhibited the tau polymerization inhibitory activity”.

As for `NCC(O)c1cccnc1` (stereo not shown) [2-amino-1-(pyridine-3-yl)ethanol], the “tau polymerization inhibitory activity” value is given as “none of these compounds exhibited the tau polymerization inhibitory activity”.

In the case of `NCC(O)c1ccccc1` (stereo not shown) [2-amino-1-phenylethanol], the “tau polymerization inhibitory activity” value is “No tau polymerization inhibitory activities”.

In the case of `CC(=O)c1ccc(O)c(O)c1` [3,4-dihydroxyacetophenone], the “tau polymerization inhibitory activity” value was “as high tau polymerization inhibitory activity as isoproterenol and catechol”.

In the case of `O=Cc1ccc(O)c(O)c1` [3,4-dihydroxybenzaldehyde], the “tau polymerization inhibitory activity” value is “exhibited no tau polymerization inhibitory activity”.

Consider `NCc1ccc(O)c(O)c1` [3,4-dihydroxybenzylamine], for which the “tau polymerization inhibitory activity” value is “as high tau polymerization inhibitory activity as isoproterenol and catechol”.

Take `Nc1cccc(O)c1O` [3-aminocatechol]: the “tau polymerization inhibitory activity” value was “inhibited the tau polymerization as strongly as 4-aminocatechol did”.

On to `COc1cccc(O)c1O` [3-methoxycatechol], for which the “tau polymerization inhibitory activity” value is “also exhibited as high tau polymerization inhibitory activity”.

On to `NCCCC(=O)Nc1ccc(O)c(O)c1` [4-(4-aminobutanoylamino) catechol], for which the “tau polymerization inhibitory activity” value is given as “decreased significantly to almost the same level as isoproterenol's”.

`CC(C)CCN(CCC(C)C)c1ccc(O)c(O)c1` [4-(diisopentylamino) catechol]: the “tau polymerization inhibitory activity” value is “decreased significantly to almost the same level as isoproterenol's”.

As to `CC(C)CCNc1ccc(O)c(O)c1` [4-(isopentylamino) catechol], the “tau polymerization inhibitory activity” value is “intense tau polymerization inhibitory activity did not change”.

Take `O=C(Nc1ccc(O)c(O)c1)N1CCOCC1` [4-(morpholinocarbonylamino) catechol]: the “tau polymerization inhibitory activity” value is “intense tau polymerization inhibitory activity slightly decreased”.

Regarding `O=C(CCl)c1ccc(O)c(O)c1` [4-chloroacetylcatechol], the “tau polymerization inhibitory activity” value is “somewhat higher tau polymerization inhibitory activity than isoproterenol and catechol”.

For the compound `Oc1ccc(Cl)cc1O` [4-chlorocatechol], the “tau polymerization inhibitory activity” value was “as high tau polymerization inhibitory activity as isoproterenol and catechol”.

On to `COc1ccc(O)c(O)c1` [4-methoxycatechol], for which the “tau polymerization inhibitory activity” value is recorded as “did not affect 1,2,4-benzenetriol's intense tau polymerization inhibitory activity”.

In the case of `CC(C)(C)c1ccc(O)c(O)c1` [4-tert-butylcatechol], the “tau polymerization inhibitory activity” value is “as high tau polymerization inhibitory activity as isoproterenol and catechol”.

As to `COc1ccc(CCN)cc1OC` [homoveratylamine], the “tau polymerization inhibitory activity” value was “Neither homoveratylamine (indicated by HV and represented by the following Chemical Formula (9)) nor 2-(3,4-dimethoxy)ethylamine (indicated by 3,4-DMPT and represented by the following Chemical Formula (10)) exhibited any tau polymerization inhibitory activity”.

The record behind these values is patent US9907799B2, “Tau aggregation inhibitor” (THE DOSHISHA, priority 2013, dated 2018).
